Data from ChEMBL document CHEMBL1146400, “10-Epi-olguine from Rabdosia ternifolia” (1997).
Values after ≈ are worked out from the molar mass of the structure shown.

Key:
Assay type in all cases: functional
Conditions in all cases: read-out: ED50 (the source's name)
KB = experiment: Cytotoxicity against human KB cells
Lu1 = experiment: Cytotoxicity against human Lu1 cells
[1] = Cytotoxicity against human KBVIN cells in absence of vinblastine
Col2 = experiment: Cytotoxicity against human Col2 cells
[2] = Cytotoxicity against human KBVIN cells in presence of vinblastine
LNCaP = experiment: Cytotoxicity against human LNCAP cells
[3] = Cytotoxicity against human BC1 cells

CC(=O)O[C@@H](C)[C@@H](/C=C/[C@@H]1O[C@@H]1[C@@H]1OC(=O)C=C[C@@H]1OC(C)=O)OC(C)=O
EC50 (KB): 1.8 µg/mL (≈ 4.71 µM)
EC50 (Lu1): 4.8 µg/mL (≈ 12.6 µM)
EC50 [1]: 2.1 µg/mL (≈ 5.49 µM)
EC50 (Col2): 2.1 µg/mL (≈ 5.49 µM)
EC50 [2]: 2.2 µg/mL
EC50 (LNCaP): 1.2 µg/mL (≈ 3.14 µM)
EC50 [3]: 1.8 µg/mL (≈ 4.71 µM)
